Format in all cases: in vivo
In test [1] the test system is Amaranthus retoflexus (AMARE). As to the kind of experiment: Post-emergence test, glasshouse. Particulars: 250 g/ha. The method, then:
(§1) Seeds of a variety of test species are sown in standard soil in pots Amaranthus retoflexus (AMARE), Abutilon theophrasti (ABUTH), Setaria faberi (SETFA), Echinochloa crus-galli (ECHCG), Ipomoea hederacea (IPOHE)). After cultivation for one day (pre-emergence) or after 8 days cultivation (post-emergence) under controlled conditions in a glasshouse (at 24/16° C., day/night; 14 hours light; 65% humidity), the plants are sprayed with an aqueous spray solution derived from the formulation of the technical active ingredient in acetone/water (50:50) solution containing 0.5% Tween 20 (polyoxyethelyene sorbitan monolaurate, CAS RN 9005-64-5). Compounds are applied at 250 g/ha unless otherwise stated. The test plants are then grown in a glasshouse under controlled conditions in a glasshouse (at 24/16° C., day/night; 14 hours light; 65% humidity) and watered twice daily. After 13 days for pre and post-emergence, the test is evaluated for the percentage damage caused to the plant. The biological activities are shown in the following table on a five-point scale (5=81-100%; 4=61-80%; 3=41-60%; 2=21-40%; 1=0-20%).

Test [2] deals with Echinochloa crus-galli (ECHCG). As to the kind of experiment: Post-emergence test, glasshouse. Particulars: 250 g/ha. The method, then:
as §1

The test system of test [3] is Ipomoea hederacea (IPOHE). As to the kind of experiment: Post-emergence test, glasshouse. Particulars: 250 g/ha. The method, then: as §1
In test [4] the test system is Setaria faberi (SETFA). The test can be described thus: Post-emergence test, glasshouse. Particulars: 250 g/ha. The method, then: as §1
For test [5], the system named is Amaranthus retoflexus (AMARE). As to the kind of experiment: Pre-emergence test, glasshouse. The settings on record: 250 g/ha. The method, then: as §1
Test [6] relates to Echinochloa crus-galli (ECHCG). The test can be described thus: Pre-emergence test, glasshouse. The settings on record: 250 g/ha. As to the method:
as §1

The test system of test [7] is Ipomoea hederacea (IPOHE). The test can be described thus: Pre-emergence test, glasshouse. Particulars: 250 g/ha. As to the method:
as §1

In test [8] the test system is Setaria faberi (SETFA). The test can be described thus: Pre-emergence test, glasshouse. Particulars: 250 g/ha. As to the method: as §1
For test [9], the system named is Abutilon theophrasti (ABUTH). As to the kind of experiment: Post-emergence test, glasshouse. Particulars: 250 g/ha. As to the method: as §1
Test [10] relates to Abutilon theophrasti (ABUTH). The test can be described thus: Pre-emergence test, glasshouse. Particulars: 250 g/ha; for percentage damage caused to the plant, LABUTH: comparative test. As to the method: as §1
[11] abbreviates: evaluated after 13 days, Table B1.
[12] abbreviates: evaluated after 13 days, Table B2.

As for `Cc1cnc(Oc2cc(C(F)(F)F)nn2-c2ccc(C(F)(F)F)cc2)nc1` [Compound 1.020, 5-methyl-2-[5-(trifluoromethyl)-2-[4-(trifluoromethyl)phenyl]pyrazol-3-yl]oxy-pyrimidine], the “percentage damage caused to the plant, AMARE” value in test [1] (setting [11]) and in test [5] (setting [12]) was 5 (5=81-100%) in each case. Further, the entries for the “percentage damage caused to the plant, ECHCG” value in test [2] (setting [11]) and in test [6] (setting [12]) were 4 (4=61-80%) and 5 (5=81-100%), respectively. Moreover, the “percentage damage caused to the plant, IPOHE” value in [3] (setting [11]) is 3 (3=41-60%); in test [7] (setting [12]), 1 (1=0-20%). Besides, the figures for the “percentage damage caused to the plant, SETFA” value in test [4] (setting [11]) and in test [8] (setting [12]) were 4 (4=61-80%) and 5 (5=81-100%), respectively.
Take `Cc1ncc(-n2nc(C(F)(F)F)cc2Oc2ncc(Cl)cn2)cn1` [Compound 1.022, 5-chloro-2-[2-(2-methylpyrimidin-5-yl)-5-(trifluoromethyl)pyrazol-3-yl]oxy-pyrimidine]: the “percentage damage caused to the plant, AMARE” value in [1] (setting [11]) and in test [5] (setting [12]) was 5 (5=81-100%) throughout. Besides, the “percentage damage caused to the plant, ECHCG” value in test [2] (setting [11]) and in test [6] (setting [12]) was 4 (4=61-80%) in each case. Moreover, the “percentage damage caused to the plant, IPOHE” value in test [3] (setting [11]) and in [7] (setting [12]) was 1 (1=0-20%) in each case. Also, the “percentage damage caused to the plant, SETFA” value in test [4] (setting [11]) is listed as 4 (4=61-80%); in test [8] (setting [12]), 5 (5=81-100%).
Turning to `FC(F)(F)c1ccc(-n2nc(C(F)(F)F)cc2Oc2ncc(Br)cn2)cc1` [Compound 1.036, 5-bromo-2-[5-(trifluoromethyl)-2-[4-(trifluoromethyl)phenyl]pyrazol-3-yl]oxy-pyrimidine], the “percentage damage caused to the plant, AMARE” value in test [1] (setting [11]) is on record as 4 (4=61-80%); in [5] (setting [12]), 3 (3=41-60%). Besides, the results for the “percentage damage caused to the plant, ECHCG” value in [2] (setting [11]) and in test [6] (setting [12]) were 1 (1=0-20%) and 4 (4=61-80%), respectively. Also, the “percentage damage caused to the plant, IPOHE” value is 2 (2=21-40%) in test [3] (setting [11]) and 1 (1=0-20%) in test [7] (setting [12]). The “percentage damage caused to the plant, SETFA” value in [4] (setting [11]) is given as 1 (1=0-20%); in [8] (setting [12]), 4 (4=61-80%).
Take `Fc1cnc(Oc2cc(C(F)(F)F)nn2-c2ccc(C(F)(F)F)cc2)nc1` [Compound 1.021]: the “percentage damage caused to the plant, AMARE” value in test [1] (setting [11]) is 4 (4=61-80%); in test [5] (setting [12]) it was 5 (5=81-100%). Further, the “percentage damage caused to the plant, ECHCG” value in test [2] (setting [11]) and in [6] (setting [12]) was 5 (5=81-100%) in each case. The “percentage damage caused to the plant, IPOHE” value in [3] (setting [11]) was 4 (4=61-80%); in [7] (setting [12]), 2 (2=21-40%). Moreover, the figures for the “percentage damage caused to the plant, SETFA” value in test [4] (setting [11]) and in test [8] (setting [12]) were 4 (4=61-80%) and 5 (5=81-100%), respectively.
For `Fc1ccccc1-n1nc(C(F)(F)F)cc1Oc1ncc(Cl)cn1` [Compound 1.033], the “percentage damage caused to the plant, AMARE” value in [1] (setting [11]) is 3 (3=41-60%); in test [5] (setting [12]), 2 (2=21-40%). The “percentage damage caused to the plant, ECHCG” value in test [2] (setting [11]) and in test [6] (setting [12]) was 1 (1=0-20%) in each case. Also, the “percentage damage caused to the plant, IPOHE” value in [3] (setting [11]) and in [7] (setting [12]) was 1 (1=0-20%) in each case. For the same compound, the “percentage damage caused to the plant, SETFA” value in [4] (setting [11]) and in [8] (setting [12]) was 1 (1=0-20%) each time.
With `Cc1cc(Oc2ncc(Cl)cn2)n(-c2ccc(C(F)(F)F)cc2)n1` [Compound C1, reference compound], the “percentage damage caused to the plant, ABUTH” value in test [9] (comparative test) is recorded as 2 (2=21-40%). The “percentage damage caused to the plant, AMARE” value in [1] (comparative test) was 4 (4=61-80%). Also, the “percentage damage caused to the plant, ECHCG” value in test [2] (comparative test) and in [6] (comparative test) was 1 (1=0-20%) each time. The “percentage damage caused to the plant, IPOHE” value in test [3] (comparative test) and in test [7] (comparative test) was 1 (1=0-20%) throughout. Besides, the “percentage damage caused to the plant, SETFA” value in [4] (comparative test) and in test [8] (comparative test) was 2 (2=21-40%) each time. Further, the “percentage damage caused to the plant, LABUTH” value in test [10] was 1 (1=0-20%).
On to `FC(F)Oc1ccc(-n2nc(C(F)(F)F)cc2Oc2ncc(Cl)cn2)cc1` [Compound 1.028], for which the results for the “percentage damage caused to the plant, AMARE” value in test [1] (setting [11]) and in [5] (setting [12]) were 4 (4=61-80%) and 2 (2=21-40%), respectively. Further, the “percentage damage caused to the plant, ECHCG” value in test [2] (setting [11]) is reported as 2 (2=21-40%); in test [6] (setting [12]) it was 1 (1=0-20%). Further, the “percentage damage caused to the plant, IPOHE” value in test [3] (setting [11]) and in test [7] (setting [12]) was 1 (1=0-20%) throughout. Besides, the “percentage damage caused to the plant, SETFA” value in [4] (setting [11]) and in test [8] (setting [12]) was 2 (2=21-40%) throughout.
Regarding `Cc1ccc(-n2nc(C(F)(F)F)cc2Oc2ncc(Cl)cn2)cc1` [Compound 1.029], the figures for the “percentage damage caused to the plant, AMARE” value in test [1] (setting [11]) and in test [5] (setting [12]) were 4 (4=61-80%) and 3 (3=41-60%), respectively. In addition, the “percentage damage caused to the plant, ECHCG” value in test [2] (setting [11]) was 2 (2=21-40%); in test [6] (setting [12]), 4 (4=61-80%). Besides, the “percentage damage caused to the plant, IPOHE” value in test [3] (setting [11]) is given as 2 (2=21-40%); in test [7] (setting [12]) it was 1 (1=0-20%). The results for the “percentage damage caused to the plant, SETFA” value in test [4] (setting [11]) and in test [8] (setting [12]) were 2 (2=21-40%) and 4 (4=61-80%), respectively.
Take `FC(F)(F)c1ccc(-n2nc(C(F)(F)F)cc2Oc2ncc(Cl)cn2)cc1` [Compound 1.001, 5-chloro-2-[5-(trifluoromethyl)-2-[4-(trifluoromethyl)phenyl]pyrazol-3-yl]oxy-pyrimidine]: the “percentage damage caused to the plant, ABUTH” value is recorded as 5 (5=81-100%) in test [9] (setting [11]), 5 (5=81-100%) in [9] (comparative test) and 4 (4=61-80%) in [10] (setting [12]). Moreover, the “percentage damage caused to the plant, AMARE” value in test [1] (setting [11]), in test [1] (comparative test), in [5] (setting [12]) and in test [5] (comparative test) was 5 (5=81-100%) each time. Further, the “percentage damage caused to the plant, ECHCG” value in test [2] (setting [11]), in test [2] (comparative test), in [6] (setting [12]) and in test [6] (comparative test) was 5 (5=81-100%) throughout. The “percentage damage caused to the plant, SETFA” value in test [4] (setting [11]), in test [4] (comparative test), in test [8] (setting [12]) and in [8] (comparative test) was 5 (5=81-100%) throughout. The “percentage damage caused to the plant, LABUTH” value in [10] is 4 (4=61-80%). The “percentage damage caused to the plant, IPOHE” value in [7] (setting [12]) and in [7] (comparative test) was 5 (5=81-100%) throughout.

The values are drawn from US12522588B2, “Herbicidal compounds” (SYNGENTA CROP PROTECTION AG, priority 2020, dated 2026).
